Test results: patent EP0546533A2, “Medical use of kininogenase” (SANWA KAGAKU KENKYUSHO CO., LTD., priority 1991, dated 1993)
Counter-ions that a name gives are not always drawn. Non-standard residues stand in square brackets, D forms with d. Residues, ends and D or L forms follow the SMILES beside them. *: point of attachment. pNA = O=[N+]([O-])c1ccc(N*)cc1; AMC = Cc1cc(=O)oc2cc(N*)ccc12

Tests used:
[1] = tested on: model animal with hypoxia; experiment: Influence to model animal with hypoxia (5% O2 breathing); assay type: in vivo, New Zealand white rabbits
Description: Each of female New Zealand white rabbits (body weight of about 3kg) were anethetized with pentbarbital-Na, and a tube was inserted, at once, into their trachea to cause an adjusted breathing with air through a respirator.
After intravenously injecting 0.5mg/kg of tubocurarine chloride to cause an amyotonia, the animal was transferred to a fixing device to cause an orientation of her brain to peel bellies along a median line in its vertex and to form two apertures or windows of 0.5 x 0.5cm at right front portion and 1.0 x 0.5cm at right rear portion of the skull. To the front window, a silver ball electrode was set to measure brain-wave in the cortex, and a local blood flow in the cortex and P02 in brain were measured by utilizing the rear window. Number of heat beats was measured by making trigger R-wave of the […]. These parameters were recorded by feeding the same to a polygraph, crossed thermocouple and recticorder.
After stabilized of each parameters, the air from the respirator was changed to 5% 02 and at once, drugs given later was intravenously injected to continue the experiment for 10 minutes.
• (A) Control group (n = 3) : • Administrated 3.3ml of phosphate buffer (0.05M, pH 7) for 30 minutes at rate of 0.11 ml/min. • (B) 5.0 x 10-^3 PNA units/kg Administration group (n = 3) : • Administrated 3.3ml of solution for 30 minutes at rate of 0.11 ml/min., which solution was prepared by diluting a kininogenase solution of 5.0 x 10-^2 PNA units/ml with phosphate buffer (0.05M, pH 7) by 10 folds. • (C) 2.5 x 10-^3 PNA units/kg Administration group (n = 3) : • Administrated 3.3ml of solution for 30 minutes at rate of 0.11 ml/min., which solution was prepared by diluting a kininogenase solution of 2.5 x 10-^2 PNA units/ml with phosphate buffer (0.05M, pH 7) by 10 folds. • (D) 1.5 x 10-^3 PNA units/kg Administration group (n = 3) : • Administrated 3.3ml of solution for 30 minutes at rate of 0.11 ml/min., which solution was prepared by diluting a kininogenase solution of 1.5 x 10-^2 PNA units/ml with phosphate buffer (0.05M, pH 7) by 10 folds. • (E) Citicholine (100mg/kg) administration group (n = 3) : • Administrated 3.3ml of a solution for 30 minutes at rate of 0.11 ml/min., which solution was prepared by taking 4ml of Nicholine injection solution (250mg/2ml), and diluting the same with phosphate buffer (0.05M, pH 7) to make the drug concentration to 100mg/kg. • (F) Citicholine (10mg/kg) administration group (n = 3) : • Administrated 3.3ml of a solution for 30 minutes at rate of 0.11 ml/min., which solution was prepared by taking 2ml of Nicholine injection solution (100mg/2ml), and diluting the same with phosphate buffer (0.05M, pH 7) to make the drug concentration to 10mg/kg. • (G) Nicardipine (4a g/kg) administration group (n = 3) : • Taking 10mg of Nicardipine, and diluting the same with saline to make the drug concentration to 4µ g/kg to administrate 0.1 ml/kg for 20 seconds.
A ratio of change was calculated on the number of heart beats, and an amount of change was calculated on the P02 in brain and local blood flow in brain. The brain-wave was analyzed with an analyzer (Type ATAC-450 marketed by Japan Photoelectric Co., Ltd.) to print out results. A statistic inspection or examination was carried out with use of a program of FM 11 marketed by Fujitu Co., Ltd. and judged as there is a significant difference, when P value is 0.05 or less in Student's t-test.

brain in ischemic state = experiment: Cerebral ischemia by ligation of vertebral and common carotid arteries, then release; assay type: in vivo, rabbit
Description: Both of side vertebral arteries of a healthy rabbit were permanently ligated, both of the common carotid arteries were ligated for 40 minutes to make the brain in ischemic state, and then released the ligation of the common carotid arteries to observe a local blood flow and brain-wave in cerebral cortex portion and to measure concentrations of ATP and lactate in the cortex portion, at the time lapsed 15 minutes from the release of blood flow in the common carotid arteries. Following drugs were administrated in following manner. Citicholine : • Intravenously administrated for 30 minutes from 15 minutes before the ligation of common carotid arteries and at a dose of 100mg/kg. Nicardipine : • Rapidly administrated into an upper portion of small intestine at the time of 15 minutes before the ligation of common carotid arteries.

[2] = tested on: middle cerebral artery obstructive model animal; experiment: Nerve dysfunction, cerebral circulation and brain wave in middle cerebral artery obstruction model; assay type: in vivo, Japanese monkey; conditions: citicholine 10mg/kg intravenous infusion, 24 hours after obstruction
Description: A tube was fitted to left-outernal carotid artery of anesthetized Japanese monkey and a silicone resin pellet [1 mm (q) ) x 5mm] was inserted into the artery through the tube to prepare a middle cerebral artery obstructive model animal.
After lapsed 5 minutes from the obstruction of left middle cerebral artery, kininogenase (2.5 x 10-^2 PNA units/kg) or citicholine (10mg/kg) as a test and control drugs was administrated through an intravenous infusion.

[3] = tested on: region occurred a cerebral infarction; experiment: Influence to region of cerebral infarction 24 hours after glass bead injection; assay type: in vivo, rabbit; conditions: 100mg/kg, sustaining administration for 30 minutes
Description: With use of model animals as in Pharmacological Test Example 4, an influence of a drug to region occurred a cerebral infarction at the time after lapsed 24 hours from the injection of glass bead was checked.

[4] = tested on: model animal destroyed in its internal capsule; assay type: in vivo, New Zealand white rabbit; conditions: citicholine 100mg/kg i.v. for 30 minutes
Description: An influence of kininogenase to an improvement in an arousal reaction of brain wave in cerebral cortex was checked by selecting a rabbit as a test animal, electrically canterigating an internal capsule to prepare a model animal with symptoms similar to a person caused a cerebral hemorrhage, and administrating the drug, since the destruction of internal capsule gives a partial obstacle to an invigoration system in ascending rectacular region, which has been said as having a close relation with the arousal reaction of brain-wave in cortex.
A cannula was fitted in an auricle vein of a female New Zealand white rabbit to anethetize the animal by intravenously administrating pentbarbital-Na (30mg/kg). […] A concentration of PC02 in the artery blood was periodically measured by a blood gas analyzer to adjust the respirator, so that the concentration lies in a suitable level of 35 ± 5mmHg). […]
The brain-wave was monopolarly derived by the screw type electrode to record on a polygraph and also recorded on a magnetic tape by a data recorder. A cardiogram, blood pressure and number of heart beats were recorded on the polygraph through a secondary induction, a pressure transducer and a momentary heart beat recorder which subjects to cause a trigger the R wave for the cardiogram, respectively. […]
A voltage firstly appeared an arousal reaction, when a voltage for stimulating the rectacular regions shall be raised up with an interval of 5V, and a period of time during which the arousal reaction continues, when the rectacular regions are stimulated with voltage of 4V were defined as the "arousal reaction threshold value" and "arousal reaction sustaining time". The threshold value and sustaining time were visually judged from waves recorded on the charts and shown with units of voltage value (V) and time (sec.). […]

[5] = tested on: model animal with cerebral infarction; experiment: Cerebral circulation and metabolism in cerebral infarction model (micro-glass bead injection); assay type: in vivo, rabbit
Description: A micro-glass bead was injected into right hemicerebrum of an anethetized healthy rabbit to prepare a model animal with cerebral infarction. After administration of a drug, local blood flow (in cortex portion), micro-circulation in cerebral pia leptmeninges, distribution of cerebral blood flow and concentrations of P02, ATP, lactate, pyruvate, glucose and glucose-6-phosphate were measured. The measurement of biochemical substances was carried out after lapsed 60 minutes from the administration of the drug.
A change in diameter arterioles in cerebral pia leptmeninges was observed, as to blood vessels having diameters of >100, >50 to <100 and <50u m, under microscope and according to Cranial window method.

[6] = biological target: T1, kininogenase extracted and purified from human urine (original solution) (Homo sapiens, UniProt P06870); experiment: Enzymatic dynamic constants with lower molecule synthetic substrates; assay type: biochemical; conditions: synthetic substrate
T1 construct: from tissue; host or cells: human urine (pooled, healthy males)
T1 sequence (P06870 25-262): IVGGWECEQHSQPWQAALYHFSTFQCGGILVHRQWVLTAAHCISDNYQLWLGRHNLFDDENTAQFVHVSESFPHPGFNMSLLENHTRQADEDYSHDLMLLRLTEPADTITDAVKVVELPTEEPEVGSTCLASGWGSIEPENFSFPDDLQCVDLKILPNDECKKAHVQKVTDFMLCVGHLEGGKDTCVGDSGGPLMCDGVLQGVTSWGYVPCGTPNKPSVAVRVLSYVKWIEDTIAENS
Description: In the next place, An ability of the kininogenase for making free the kinin was periodically checked by using canine lower molecule kininogen, human lower molecule kininogen and human higher molecule kininogen in various concentration, as substrates to calculate enzymatic dynamic constants of the kininogenase.
An activity of the kininogenase to decomposition of lower molecule synthetic substrates was checked as in said Item (A) to calculate enzymatic dynamic constants of the kininogenase.

[7] = 5% O2, citicholine 100mg/kg or 10mg/kg i.v., Nicardipine 4µ g/kg

Structure (SMILES): COC(=O)C1=C(C)NC(C)=C(C(=O)OCCN(C)Cc2ccccc2)C1c1cccc([N+](=O)[O-])c1 (centres unmarked) [Nicardipine]
- Influence to local blood flow in cerebral cortex (suppression of increase) [1, 7]: no effect

Structure (SMILES): C[N+](C)(C)CCOP(=O)(O)OP(=O)([O-])OC[C@H]1O[C@@H](n2ccc(N)nc2=O)[C@H](O)[C@@H]1O [Citicholine]
- local blood flow in cerebral cortex portion after release of blood flow (brain in ischemic state; citicholine 100mg/kg i.v. for 30 minutes, Nicardipine rapidly into upper small intestine, 15 minutes before ligation): did not suppresses the blood flow increase
- reactivation of flattened brain-wave (brain in ischemic state; citicholine 100mg/kg i.v., Nicardipine into upper small intestine): not recognized
- blood flow in cerebral cortex [2]: no improvement
- brain wave activities [2]: no improvement
- neuro symptoms ([2]; versus control group): improvement
- Region of infarction (%) ([3]; 24 hours after glass bead injection): 30.8 ± 19.8%
- Inhibition (%) ([3]; versus control): -35.9%
- frequency components of brain wave in cortex portion (quick wave components) ([4]; reported as a tendency): reduction of quick wave components is suppressed
- Sustaining period of time in the arousal reaction ([4]; versus control group): not recognized
- Threshold value of arousal reaction ([4]; versus control group): No apparent change
- suppression of ATP decrease ([5]; 60 minutes after administration of the drug): did not show the suppress of ATP decrease
- Blood flow in cerebral cortex portion at the ischemic side ([5]; Nicardipine 0.5mg/kg rapid into upper small intestine, citicholine 10mg/kg sustaining intravenous): no increase
- Influence to P02 in cerebral cortex (suppression of decrease) [1, 7]: no suppressing effect
- Influence to local blood flow in cerebral cortex (suppression of increase) [1, 7]: no effect
- Influence to brain-wave in cortex portion ([1]; 5% O2, citicholine at dose of 100mg/kg): low-amplitude and quick wave
- Influence to number of heart beats ([1]; versus control group, citicholine 100mg/kg or 10mg/kg i.v. for 30 minutes, Nicardipine 4µ g/kg for 20 seconds): no significant difference

Structure (SMILES): CCOC(=O)[C@H](CCCNC(=N)N)NC(=O)c1ccccc1 [BAEE, Benzoyl-L-Arg ethyl ether hydrochloride]
- Km [6]: 252 µM
- Vmax [6]: 4.23e-05 min⁻¹ mg⁻¹

Structure (SMILES): CC(C)C[C@H](NC(=O)[C@H](N)C(C)C)C(=O)N[C@@H](CCCNC(=N)N)C(=O)Nc1ccc([N+](=O)[O-])cc1 [PNA, H-D-Val-L-Leu-L-Arg-p-nitroanilide dihydrochloride] (H-[dV]-Leu-Arg-pNA)
- Km [6]: 8.95 µM
- Vmax [6]: 7.8e-06 min⁻¹ mg⁻¹

Structure (SMILES): Cc1cc(=O)oc2cc(NC(=O)[C@H](CCCNC(=N)N)NC(=O)[C@H](Cc3ccccc3)NC(=O)[C@@H]3CCCN3)ccc12 [MCA, L-Pro-L-Phe-L-Arg-4-methyl-cumaryl-7-amide] (H-Pro-Phe-Arg-{AMC})
- Km [6]: 34 µM
- Vmax [6]: 2.57e-05 min⁻¹ mg⁻¹
